Key:
[1] = system: 60 different human tumor cell lines; assay: NCI 60 cell line single dose screen, whole panel; assay type: cell-based; conditions: 10 micromolar, mean over cell lines
Excerpt: Analog 10 was screened utilizing 60 different human tumor cell lines, representing leukemia, melanoma and cancers of the lung, colon, brain, ovary, breast, prostate, and kidney in order to show selective growth inhibition or cell killing of particular tumor cell lines. This screen is unique in that the complexity of a 60 cell line dose response produced by a given compound results in a biological response pattern which can be utilized in pattern recognition algorithms (COMPARE program. See: http://dtp.nci.nih.gov/docs/compare/compare.html). Using these algorithms, it is possible to assign a putative mechanism of action to a test compound, or to determine that the response pattern is unique and not similar to that of any of the standard prototype compounds included in the NCI database. […]
Following drug addition, the plates are incubated for an additional 48 h at 37° C., 5% CO2, 95% air, and 100% relative humidity. […] Bound stain is subsequently solubilized with 10 mM trizma base, and the absorbance is read on an automated plate reader at a wavelength of 515 nm. […] Using the absorbance measurements [time zero, (Tz), control growth, (C), and test growth in the presence of drug (Ti)], the percentage growth is calculated.

DU-145 = assay: NCI 60 cell line single dose screen; assay type: cell-based, human; conditions: DU-145 (Prostate Cancer), 10 micromolar, 48 h
Excerpt: (§1) Analog 10 was screened utilizing 60 different human tumor cell lines, representing leukemia, melanoma and cancers of the lung, colon, brain, ovary, breast, prostate, and kidney in order to show selective growth inhibition or cell killing of particular tumor cell lines. This screen is unique in that the complexity of a 60 cell line dose response produced by a given compound results in a biological response pattern which can be utilized in pattern recognition algorithms (COMPARE program. See: http://dtp.nci.nih.gov/docs/compare/compare.html). Using these algorithms, it is possible to assign a putative mechanism of action to a test compound, or to determine that the response pattern is unique and not similar to that of any of the standard prototype compounds included in the NCI database. In addition, following characterization of various cellular molecular targets in the 60 cell lines, it may be possible to select compounds most likely to interact with a specific molecular target.
(§2) The screening is a two-stage process, beginning with the evaluation of the compound against the 60 cell lines at a single dose of 10 uM.
(§3) The human tumor cell lines of the cancer screening panel are grown in RPMI 1640 medium containing 5% fetal bovine serum and 2 mM L-glutamine. For a typical screening experiment, cells are inoculated into 96 well microtiter plates in 100 μL at plating densities ranging from 5,000 to 40,000 cells/well depending on the doubling time of individual cell lines. After cell inoculation, the microtiter plates are incubated at 37° C., 5% CO2, 95% air and 100% relative humidity for 24 h prior to addition of experimental drug.
(§4) After 24 h, two plates of each cell line are fixed in situ with TCA, to represent a measurement of the cell population for each cell line at the time of drug addition (Tz). Experimental drugs are solubilized in dimethyl sulfoxide at 400-fold the desired final maximum test concentration and stored frozen prior to use. At the time of drug addition, an aliquot of frozen concentrate is thawed and diluted to twice the desired final maximum test concentration with complete medium containing 50 μg/ml gentamicin.
(§5) Following drug addition, the plates are incubated for an additional 48 h at 37° C., 5% CO2, 95% air, and 100% relative humidity. For adherent cells, the assay is terminated by the addition of cold TCA. Cells are fixed in situ by the gentle addition of […] of cold 50% (w/v) TCA (final concentration, 10% TCA) and incubated for 60 minutes at 4° C. The supernatant is discarded, and the plates are washed five times with tap water and air dried. Sulforhodamine B (SRB) solution (100 μl) at 0.4% (w/v) in 1% acetic acid is added to each well, and plates are incubated for 10 minutes at room temperature. After staining, unbound dye is removed by washing five times with 1% acetic acid and the plates are air dried. Bound stain is subsequently solubilized with 10 mM trizma base, and the absorbance is read on an automated plate reader at a wavelength of 515 nm. For suspension cells, the methodology is the same except that the assay is terminated by fixing settled cells at the bottom of the wells by gently adding 50 μl of 80% TCA (final concentration, 16% TCA). Using the absorbance measurements [time zero, (Tz), control growth, (C), and test growth in the presence of drug (Ti)], the percentage growth is calculated.

HCC-2998 = assay: NCI 60 cell line single dose screen; assay type: cell-based, human; conditions: HCC-2998 (Colon Cancer), 10 micromolar, 48 h
Excerpt: as §1, §2, §3, §4, §5

M14 = assay: NCI 60 cell line single dose screen; assay type: cell-based, human; conditions: M14 (Melanoma), 10 micromolar, 48 h
Excerpt: as §1, §2, §3, §4, §5

SF-295 = assay: NCI 60 cell line single dose screen; assay type: cell-based, human; conditions: SF-295 (CNS Cancer), 10 micromolar, 48 h
Excerpt: as §1, §2, §3, §4, §5

CAKI-1 = assay: NCI 60 cell line single dose screen; assay type: cell-based, human; conditions: CAKI-1 (Renal Cancer), 10 micromolar, 48 h
Excerpt: as §1, §2, §3, §4, §5

PC-3 = assay: NCI 60 cell line single dose screen; assay type: cell-based, human; conditions: PC-3 (Prostate Cancer), 10 micromolar, 48 h
Excerpt: as §1, §2, §3, §4, §5

UACC-62 = assay: NCI 60 cell line single dose screen; assay type: cell-based, human; conditions: UACC-62 (Melanoma), 10 micromolar, 48 h
Excerpt: as §1, §2, §3, §4, §5

CCRF-CEM = assay: NCI 60 cell line single dose screen; assay type: cell-based, human; conditions: CCRF-CEM (Leukemia), 10 micromolar, 48 h
Excerpt: as §1, §2, §3, §4, §5

SK-MEL-5 = assay: NCI 60 cell line single dose screen; assay type: cell-based, human; conditions: SK-MEL-5 (Melanoma), 10 micromolar, 48 h
Excerpt: as §1, §2, §3, §4, §5

OVCAR-3 = assay: NCI 60 cell line single dose screen; assay type: cell-based, human; conditions: OVCAR-3 (Ovarian Cancer), 10 micromolar, 48 h
Excerpt: as §1, §2, §3, §4, §5

KM12 = assay: NCI 60 cell line single dose screen; assay type: cell-based, human; conditions: KM12 (Colon Cancer), 10 micromolar, 48 h
Excerpt: as §1, §2, §3, §4, §5

UACC-257 = assay: NCI 60 cell line single dose screen; assay type: cell-based, human; conditions: UACC-257 (Melanoma), 10 micromolar, 48 h
Excerpt: as §1, §2, §3, §4, §5

[2] = system: F-actin in DU145 prostate cancer cell line; assay: F-actin depolymerization in DU145 prostate cancer cell line; assay type: cell-based, human
Excerpt: We also examined the ability of 10 to depolymerize F-actin in live cells. The actin cytoskeleton can be readily visualized by fluorescent microscopy following Alexa Fluor 488 phalloidin staining.

F-actin in A549 cells = assay: Fluorescent visualization of F-actin in A549 cells (Alexa Fluor 488 phalloidin); assay type: cell-based, human
Experimental: The presence of the enone increased the severing efficiency of the analogs three-fold. […] We determined whether it was the depletion of actin filaments by analogs 2-5 which was responsible for the growth inhibition of A549 cells. Each of the compounds was incubated with A549 cells for 2 h at a concentration that exceeded the GI50 value by a factor of 5. The cells were then fixed, permeabilized and filamentous actin was visualized by fluorescence microscopy following Alexa Fluor 488 phalloidin staining. […] They induced depolymerization at 150 nM for bistramide A (1), 500 nM for analog 2 and 2 μM for analog 3. Analogs 4 and 5 induced depolymerization of actin only at concentrations as high as 100 μM. […] This observation was consistent with the enhanced cell-based activity of the compounds containing the C(1)-C(4) enone moiety.
Fluorescent Visualization Of F-Actin In Cells. A549 cells grown on coverslips were incubated with analogs 4-8 (100 μM) analog 3 (2 μM) or analog 2 (500 nM) or bistramide A (150 nM) in F-12K cell culture medium for 2 h, fixed with 3% formaldehyde in PBS at 25° C. for 5 min and permeabilized with 0.1% Triton X-100 at 25° C. for 10 min. After washing with PBS, coverslips were stained with Alexa Fluor 488 Phalloidin and visualized by fluorescence microscopy.

COCCC(=O)NC[C@H](O)[C@H](C)C(=O)NCCC[C@H]1O[C@@]2(CCC[C@@H](CC[C@H](C)/C=C(\C)[C@H](C)O)O2)CCC1C (stereo partly shown) [Analog 10]
Growth Percent, Mean [1]: 50.03% | Growth Percent (DU-145): 54.89% | Growth Percent (HCC-2998): 66.34% | Growth Percent (M14): 71.74% | Growth Percent (SF-295): 13.26% | Growth Percent (CAKI-1): −37.52% | Growth Percent (PC-3): 66.25% | Growth Percent (UACC-62): 48.46% | Growth Percent (CCRF-CEM): 24.00% | Growth Percent (SK-MEL-5): 75.27% | Growth Percent (OVCAR-3): 83.59% | Growth Percent (KM12): 73.09% | Growth Percent (UACC-257): 72.55% | F-actin depolymerization in DU145 cells [2]: A similar effect of 10 on F-actin depolymerization was also observed | F-actin depolymerization in A549 cells (F-actin in A549 cells): depolymerized F-actin in A549 cells in a dose-dependent manner | concentration at which noticeable actin disassembly was detected (F-actin in A549 cells; A549 cells): 250 nM

Source: patent US8350062B2, “Synthesis and anticancer activity of new actin-targeting small-molecule agents” (priority 2009, dated 2013)
